ChEMBL document CHEMBL1139781, “Pyrazolo[3,4-d]pyrimidines as potent inhibitors of the insulin-like growth factor receptor (IGF-IR)” (Bioorg Med Chem Lett, 2007)

Columns and labels:
[1] = target: T1, Insulin-like growth factor 1 receptor (Homo sapiens, UniProt P08069); assay: Inhibition of human IGF1R expressed in Sf21 cells by time-resolved fluorescence assay
[2] = target: T1, Insulin-like growth factor 1 receptor; assay: Inhibition IGF1R phosphorylation in human MiaPaCa2 cells; format: cell-based
[3] = test system: Mus musculus; assay: Dose normalized AUC in po dosed mouse; format: ADME, organism-based; settings: in vivo
[4] = Bioavailability in mouse; format: ADME, organism-based; settings: in vivo
[5] = Half life in mouse; format: ADME, organism-based; settings: in vivo
[6] = test system: Mus musculus; assay: Dose normalized AUC in iv dosed mouse; format: ADME, organism-based; settings: in vivo
[7] = Plasma clearance in mouse; format: ADME, organism-based
[8] = Drug concentration in C57BL/6 mouse plasma at 12.5 mg/kg, po after 4 hrs; format: ADME, organism-based, C57BL6; design: dose 12.5 mg/kg, route oral
[9] = test system: Mus musculus; assay: In vivo inhibition of IFG1R autophosphorylation in C57BL/6 mouse lung at 12.5 mg/kg, po after 4 hrs; format: organism-based; design: dose 12.5 mg/kg, route oral; settings: C57BL6, po

T1 sequence (P08069 31-736 limits assumed): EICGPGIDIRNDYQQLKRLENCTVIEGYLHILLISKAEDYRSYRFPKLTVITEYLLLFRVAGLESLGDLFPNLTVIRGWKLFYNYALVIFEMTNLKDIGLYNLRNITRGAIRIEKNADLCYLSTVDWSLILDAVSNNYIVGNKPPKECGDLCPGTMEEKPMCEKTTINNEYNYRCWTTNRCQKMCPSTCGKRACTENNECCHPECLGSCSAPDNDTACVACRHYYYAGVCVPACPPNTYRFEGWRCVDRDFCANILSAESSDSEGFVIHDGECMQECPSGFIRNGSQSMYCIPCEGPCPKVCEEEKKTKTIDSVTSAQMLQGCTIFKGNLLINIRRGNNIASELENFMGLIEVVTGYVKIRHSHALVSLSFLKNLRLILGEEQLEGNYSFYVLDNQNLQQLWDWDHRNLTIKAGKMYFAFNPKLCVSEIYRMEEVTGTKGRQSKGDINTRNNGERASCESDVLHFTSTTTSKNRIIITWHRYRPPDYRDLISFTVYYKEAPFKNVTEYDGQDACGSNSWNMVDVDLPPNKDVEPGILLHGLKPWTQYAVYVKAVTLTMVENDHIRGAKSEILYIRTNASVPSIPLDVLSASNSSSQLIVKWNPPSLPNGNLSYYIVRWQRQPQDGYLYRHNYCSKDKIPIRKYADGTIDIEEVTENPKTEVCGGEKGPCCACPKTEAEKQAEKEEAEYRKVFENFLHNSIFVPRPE
T1 sequence (P08069 741-1367 limits assumed): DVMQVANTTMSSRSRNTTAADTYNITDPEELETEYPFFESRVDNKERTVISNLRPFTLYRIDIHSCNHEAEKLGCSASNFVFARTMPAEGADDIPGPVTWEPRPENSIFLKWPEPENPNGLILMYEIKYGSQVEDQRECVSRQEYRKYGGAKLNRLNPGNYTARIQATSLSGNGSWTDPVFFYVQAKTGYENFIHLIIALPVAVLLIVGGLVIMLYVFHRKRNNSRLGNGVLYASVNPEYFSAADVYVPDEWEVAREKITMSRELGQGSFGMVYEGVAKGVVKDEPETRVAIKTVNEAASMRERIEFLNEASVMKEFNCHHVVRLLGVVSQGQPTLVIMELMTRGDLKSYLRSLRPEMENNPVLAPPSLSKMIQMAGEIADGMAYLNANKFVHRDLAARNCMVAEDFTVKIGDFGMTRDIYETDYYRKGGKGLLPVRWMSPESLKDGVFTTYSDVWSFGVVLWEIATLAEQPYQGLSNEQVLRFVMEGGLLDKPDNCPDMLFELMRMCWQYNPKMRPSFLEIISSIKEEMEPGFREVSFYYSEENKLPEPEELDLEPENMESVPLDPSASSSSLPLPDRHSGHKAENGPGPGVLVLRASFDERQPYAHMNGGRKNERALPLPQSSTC

| IC50 [1] [nM] | IC50 [2] [nM] | Structure (SMILES) | other results |
| --- | --- | --- | --- |
| 38 | 117 | Cc1ccccc1Cc1nc2ccc(-c3nn([C@H]4CC[C@H](N5CCOCC5)CC4)c4ncnc(N)c34)cc2[nH]1 |  |
| 23 | 56 | Nc1ncnc2c1c(-c1ccc3nc(Cc4cccs4)[nH]c3c1)nn2[C@H]1CC[C@H](N2CCOCC2)CC1 | AUC [3]: 0.039 µmol·h/L/mg/kg; bioavailability [4]: 9%; half-life [5]: 36 min; AUC [6]: 0.42 µmol·h/L/mg/kg; clearance [7]: 76.7 mL/min/kg |
| 32 | 84 | Nc1ncnc2c1c(-c1ccc3nc(Cc4ccsc4)[nH]c3c1)nn2[C@H]1CC[C@H](N2CCOCC2)CC1 |  |
| 37 | 58 | CN1CCN([C@H]2C[C@@H](c3nc(-c4ccc5ccc(-c6ccccc6)nc5c4)c4c(N)nccn43)C2)CC1 |  |
| 176 | 787 | Nc1ncnc2c1c(-c1ccc3[nH]c(-c4ccccc4)nc3c1)nn2[C@H]1CC[C@H](N2CCOCC2)CC1 |  |
| 79 | 104 | Nc1ncnc2c1c(-c1ccc3nc(Cc4c(F)cccc4F)[nH]c3c1)nn2[C@H]1CC[C@H](N2CCOCC2)CC1 |  |
| 64 | 94 | Nc1ncnc2c1c(-c1ccc3nc(Cc4ccccc4)[nH]c3c1)nn2[C@H]1CC[C@H](N2CCOCC2)CC1 | AUC [3]: 0.16 µmol·h/L/mg/kg; bioavailability [4]: 15%; half-life [5]: 60 min; AUC [6]: 1.1 µmol·h/L/mg/kg; clearance [7]: 38.3 mL/min/kg |
| 1310 | 2340 | Nc1ncnc2c1c(-c1ccc3nc(Cc4ccc5ccccc5c4)[nH]c3c1)nn2[C@H]1CC[C@H](N2CCOCC2)CC1 |  |
| 123 | 372 | Nc1ncnc2c1c(-c1ccc3nc(Cc4cccc(Cl)c4)[nH]c3c1)nn2[C@H]1CC[C@H](N2CCOCC2)CC1 |  |
| 90 | 113 | Nc1ncnc2c1c(-c1ccc3[nH]c(Cc4c(F)cccc4Cl)nc3c1)nn2[C@H]1CC[C@H](N2CCOCC2)CC1 |  |
| 674 | 819 | Nc1ncnc2c1c(-c1ccc3nc(Cc4ccc(F)c(F)c4)[nH]c3c1)nn2[C@H]1CC[C@H](N2CCOCC2)CC1 |  |
| 58 | 140 | Nc1ncnc2c1c(-c1ccc3nc(Cc4cccc(F)c4)[nH]c3c1)nn2[C@H]1CC[C@H](N2CCOCC2)CC1 |  |
| 70 | 257 | Cc1ccc(Cc2nc3ccc(-c4nn([C@H]5CC[C@H](N6CCOCC6)CC5)c5ncnc(N)c45)cc3[nH]2)cc1 |  |
| 37 | 90 | Nc1ncnc2c1c(-c1ccc3nc(Cc4ccccc4Cl)[nH]c3c1)nn2[C@H]1CC[C@H](N2CCOCC2)CC1 | concentration at 4 h [8]: 2400 nM; AUC [3]: 0.43 µmol·h/L/mg/kg; bioavailability [4]: 28%; half-life [5]: 72 min; AUC [6]: 1.5 µmol·h/L/mg/kg; clearance [7]: 20 mL/min/kg; inhibition at 12.5 mg/kg [9]: 92% |
| 186 | 267 | Cc1cccc(Cc2nc3ccc(-c4nn([C@H]5CC[C@H](N6CCOCC6)CC5)c5ncnc(N)c45)cc3[nH]2)c1 |  |
| 2320 |  | Nc1ncnc2c1c(-c1ccc3[nH]c(Cc4cccc(Cl)c4Cl)nc3c1)nn2[C@H]1CC[C@H](N2CCOCC2)CC1 |  |
| 4330 | 2790 | Cc1cc(-c2nn([C@H]3CC[C@H](N4CCOCC4)CC3)c3ncnc(N)c23)cc2[nH]c(Cc3ccccc3)nc12 |  |
| 51 | 168 | Nc1ncnc2c1c(-c1ccc3nc(Cc4ccccc4F)[nH]c3c1)nn2[C@H]1CC[C@H](N2CCOCC2)CC1 |  |
| 2340 | 2650 | Nc1ncnc2c1c(-c1ccc3nc(Cc4ccccn4)[nH]c3c1)nn2[C@H]1CC[C@H](N2CCOCC2)CC1 |  |
| 125 | 252 | Nc1ncnc2c1c(-c1ccc3[nH]c(Cc4c(Cl)cccc4Cl)nc3c1)nn2[C@H]1CC[C@H](N2CCOCC2)CC1 |  |
| 35 | 132 | Cn1c(Cc2ccccc2)nc2cc(-c3nn([C@H]4CC[C@H](N5CCOCC5)CC4)c4ncnc(N)c34)ccc21 |  |
| 642 | 637 | Nc1ncnc2c1c(-c1ccc3nc(Cc4ccc(Cl)cc4)[nH]c3c1)nn2[C@H]1CC[C@H](N2CCOCC2)CC1 |  |
| 173 | 197 | Nc1ncnc2c1c(-c1ccc3nc(Cc4cccc(F)c4F)[nH]c3c1)nn2[C@H]1CC[C@H](N2CCOCC2)CC1 |  |
| 71 | 65 | Nc1ncnc2c1c(-c1ccc3[nH]c(Cc4ccccc4Br)nc3c1)nn2[C@H]1CC[C@H](N2CCOCC2)CC1 |  |
| 488 | 429 | Nc1ncnc2c1c(-c1ccc3nc(Cc4ccc(Cl)c(Cl)c4)[nH]c3c1)nn2[C@H]1CC[C@H](N2CCOCC2)CC1 |  |
| 924 | 1250 | Nc1ncnc2c1c(-c1ccc3nc(Cc4ccc(F)cc4)[nH]c3c1)nn2[C@H]1CC[C@H](N2CCOCC2)CC1 |  |
| 81 | 142 | COc1ccccc1Cc1nc2ccc(-c3nn([C@H]4CC[C@H](N5CCOCC5)CC4)c4ncnc(N)c34)cc2[nH]1 |  |
| 152 | 183 | Nc1ncnc2c1c(-c1ccc3nc(Cc4cc(F)cc(F)c4)[nH]c3c1)nn2[C@H]1CC[C@H](N2CCOCC2)CC1 |  |
| 3310 | 1540 | Cc1nc(Cc2nc3ccc(-c4nn([C@H]5CC[C@H](N6CCOCC6)CC5)c5ncnc(N)c45)cc3[nH]2)cs1 |  |
